# From patent US11021448B2, “1,3-dihydro-1,4-benzodiazepine-2-thiones for the treatment of CNS related diseases” (priority 2016, dated 2021)
# Read-outs that look alike come from different tables or passages of the source.
# Experiments:
# GABA A = test: Oocyte EP; format: cell-based; details: at 1 μM
# GABA-A alpha5 (α5β3γ2) = molecular target: T1, GABA-A alpha5 (α5β3γ2) (Homo sapiens, UniProt P18507+P31644); test: GABA A radioligand binding assay, competition for [3H]flumazenil; details: [3H]flumazenil 1 nM, HEK293 membranes
# T1 construct: expressed in transfected cells; host or cells: HEK293 (transient transfection; membranes)
# Procedure: The ability of compounds present invention to bind to GABA A receptor subtypes was determined by competition for [^3H]flumazenil (85 Ci/mmol; Roche) binding to HEK293 cells expressing human (transiently transfected) receptors of composition α1β2γ2, and α5β3γ2.
# Membrane preparation Cell pellets were suspended in Krebs-tris buffer (5 mM KCl, 1.25 mM CaCl2), 1.25 mM MgCl2, 120 mM NaCl, 15 mM Tris; pH 7.5; binding assay buffer), homogenized by polytron for ca. 20 sec on ice and centrifuged for 60 min at 4° C. (50000 g; Sorvall, rotor: SM24=20000 rpm). The cell pellets were resuspended in Krebs-tris buffer and homogenized by polytron for ca. 15 sec on ice. Protein was measured (Bradford method, Bio-Rad) and aliquots of 1 mL were prepared and stored at −80° C.
# Radioligand binding assays were carried out in a volume of 200 uL (96-well plates) which contained 100 μL of cell membranes, [3H]flumazenil at a concentration of 1 nM for a1, a2, a3 subunits and 1 nM for a5 subunits and the test compound in the range of 3.16 μM to 0.1 μM. Nonspecific binding was defined by 10^−5 M diazepam and typically represented less than 5% of the total binding. […] After drying, filter-retained radioactivity was detected by liquid scintillation counting.
# Ki values were calculated using Excel-Fit (Microsoft) and are the means of two determinations.
# hM1 = molecular target: T2, hM1 (Homo sapiens, UniProt P11229); test: FLIPR intracellular calcium assay for modulator activity at the muscarinic M1 receptor in CHO human M1 cells; format: cell-based
# T2 construct: expressed in transfected cells; host or cells: CHO
# T2 sequence (P11229 1-460): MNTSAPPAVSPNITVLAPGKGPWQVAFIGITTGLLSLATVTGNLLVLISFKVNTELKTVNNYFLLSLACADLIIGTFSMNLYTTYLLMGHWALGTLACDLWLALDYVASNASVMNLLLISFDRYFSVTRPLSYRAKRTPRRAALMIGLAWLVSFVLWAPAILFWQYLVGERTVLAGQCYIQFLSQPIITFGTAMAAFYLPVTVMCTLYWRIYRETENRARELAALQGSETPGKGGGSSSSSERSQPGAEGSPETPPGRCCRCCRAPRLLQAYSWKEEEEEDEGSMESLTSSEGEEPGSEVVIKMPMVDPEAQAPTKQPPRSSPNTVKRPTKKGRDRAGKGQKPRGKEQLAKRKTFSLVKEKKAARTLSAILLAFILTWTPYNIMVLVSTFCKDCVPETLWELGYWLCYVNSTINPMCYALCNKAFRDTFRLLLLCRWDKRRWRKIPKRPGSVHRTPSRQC
# Procedure: The assay study the effect of several concentrations of test compounds on basal or acetylcholine-stimulated Ca^2+ levels using FLIPR.
# The cell plate and the diluted compounds (1% DMSO final concentration) are placed on the platform of the FLIPR and the door closed. A signal test to check background fluorescence and basal fluorescence signal is performed. Laser intensity is adjusted if necessary. Two minutes preincubation with the diluted test compounds is provide to determine any agonist activity on the M1 receptor by comparison to 30 nM Acetylcholine control. In order to determine any modulator activity the diluted compounds were added to cells and after two minutes preincubation, the EC20 of acetylcholine is added followed by another two minutes preincubation before the measurement of intracellular Ca^2+ with a FLIPR (Molecular Devices).
compound,measurement,setting,value
"CC(C)[C@@H]1N=C(c2ccccc2F)c2cc(Cl)ccc2NC1=S [Example 5, (3S)-7-chloro-5-(2-fluorophenyl)-3-propan-2-yl-1,3-dihydro-1,4-benzodiazepine-2-thione]",Oocyte EP effect,GABA A,no effect
same,Ki,"GABA-A alpha5 (α5β3γ2); GABA-A alpha 5 (second value, Ki implied), second value",> 36000 nM
same,Ki,GABA-A alpha5 (α5β3γ2); GABA-A alpha5: Ki,> 24000 nM
same,IC50,hM1,80 nM
"CC(=O)OC1C=C(c2ccccc2F)c2cc(Cl)ccc2NC1=S (centres unmarked) [Example 14, [7-chloro-5-(2-fluorophenyl)-2-thioxo-1,3-dihydro-1-benzazepin-3-yl]acetate]",IC50,"hM1; CHO human M1, with EC20 of acetylcholine, FLIPR, read-out: IC50 value hM1 (converted)",649 nM
same,melting point,,214 to 215 °C
"S=C1Nc2ccc(Cl)cc2C(c2ccccc2Cl)=NC1Cc1ccccc1 (centres unmarked) [Example X1, 3-Benzyl-7-chloro-5-(2-chloro-phenyl)-1,3-dihydro-benzo[1,4]diazepine-2-thione]",activity at M1 receptor,hM1,no activity
"S=C1Nc2ccc(Cl)cc2C(c2ccccc2Cl)=NC1CC1CC1 (centres unmarked) [Example X2, 7-chloro-5-(2-chlorophenyl)-3-(cyclopropylmethyl)-1H-benzo[e][1,4]diazepine-2(3H)-thione]",activity at M1 receptor,hM1,no activity
